Test results taken from patent publication US11066433B2, “Pentaaza macrocyclic ring complexes possessing oral bioavailability” (Galera Labs, LLC, priority 2015, dated 2021).

What was measured:
[1] = Oral bioavailability by intraduodenal (id) dosing of minipigs, oil formulations, versus iv parent; format: in vivo, Gottingen minipig; conditions: id 10 mg/kg, 10% by weight formulation, vs iv 1 mg/kg parent, AUC0-24 h
Description: Compounds were screened for oral bioavailability by injecting the formulated prodrugs directly into the duodenum (intraduodenal or id administration) of the minipig test subjects, thus bypassing the acidic environment of the stomach and thereby eliminating potentially misleading oral bioavailability results that could arise from alteration of the test article drug in the acid environment of the stomach.
The studies were conducted at Xenometrics LLC (Stillwell, Kans.) and the id bioavailability was determined using various axial ligand derivative complexes of GC4419, GC4444, GC4403 and GC4401.
Male Gottingen minipigs (4-5 mo old, 9-12 kg weight) were purchased from Marshall BioResources and housed at Xenometrics. […] The distal end was exteriorized with a reusable accessible hub (see surgical details below). During a recovery period of at least 2 weeks the minipigs were handled daily to acclimate them to the test procedures, i.e., id dosing and blood collections. For each experiment, each minipig received a test article drug dissolved or suspended in an excipient vehicle. […] All dosing experiments were conducted in fasted animals. Food was withdrawn from the minipigs 16 hours before dosing. The minipigs had ad libitum access to water. Dosed minipigs were allowed access to food 6 hour after dosing. The test article was administered at a dose of 10 mg/kg parent drug in 0.1 mL/kg vehicle (e.g., 1.5 mL in 15 kg minipig) as a bolus injection (˜1 minute) via the id cannula. The actual amount of total test article drug administered varied with the formula weight of the prodrug. An equal volume of excipient vehicle was used to flush the cannula after the test article was administered. Approximately 6 hours later, corn oil was used to flush the cannula. After approximately 24 hours post-dose, the catheter was flushed with sterile saline solution and capped. At the following time-points 0.25, 0.5, 1, 2, 4, 8, 24 and 48 hour post-injection, 2 mL blood samples were collected by cranial vena cava puncture (4 mL Sodium heparin Vacutainer, 20 g 1.5″ needle) after the skin surface was wiped with ethanol. The minipig was placed in a sling in a recumbent position without anesthesia for the collection of blood samples. The minipigs were never used more than once per 7 days for experimentation. The blood samples were kept on ice until processed for plasma. Blood samples were centrifuged at 1200×g for ten minutes at 4° C. and plasma samples were transferred to 96 well plate tubes, capped and stored at −20° C. until shipment on dry ice to the analytical laboratory used for measuring the concentration of drug in the plasma. The concentration of the parent manganese pentaaza macrocylic ring complex (independent of the composition of the axial ligands) was measured in plasma using a validated HPLC/MS/MS method that is linear between 50 ng/mL and 20,000 ng/mL.
Maisine 35-1 is chemically defined to be the monoglyceride glyceryl monolinoleate (NF) and was supplied by Gattefosse, SAINT-PRIEST Cedex, France. Labrasol (NF) is chemically defined to be caprylocaproyl polyoxyl-8 glycerides NF and was supplied by Gattefosse, SAINT-PRIEST Cedex, France. Labrafil M 1944 CS is chemically defined to be oleoyl polyoxyl-6 glycerides (NF), and is available from Gattefosse, SAINT-PRIEST Cedex, France. The dosing solutions were all prepared using a four place analytical balance by weighing all components of each formulation so that 10% by weight of each formulation contained the test article drug substance and 90% by weight of the oil used for that formulation.
The bioanalytical method which is used to quantitate the parent Mn(II) macrocyclic ring ligand structure in plasma utilizes HPLC with MS/MS detection and monitors the presence of the monocationic [monoformatoMn(pentaazamacrocycle)]+ complex. […]

[2] = tested on: colon of rats subjected to an experimental model of colitis; conditions: ip injection; cited from earlier work
[3] = tested on: radiation-induced oral mucositis; conditions: ip, hamster oral mucositis model; cited from earlier work
[4] = tested on: lethal total body irradiation; conditions: ip, adult mice; cited from earlier work
[5] = tested on: inflammation; conditions: ip, rat; cited from earlier work
[6] = tested on: collagen-induced arthritis; conditions: ip, rat collagen-induced arthritis; cited from earlier work
[7] = Solubility in water; format: physicochemical
[8] = tested on: VEGFr inhibitor-induced pulmonary disease; conditions: ip, rat model; cited from earlier work
[9] = tested on: mouse cancer models; conditions: ip; cited from earlier work
[10] = tested on: oral mucositis; conditions: iv infusion, head-and-neck cancer patients, chemoradiation therapy; cited from earlier work

Question: With `[Cl-].[Cl-].[Mn+2].c1cc2nc(c1)CN[C@@H]1CCCC[C@H]1NCCN[C@@H]1CCCC[C@H]1NC2` [GC4403] as the compound, how does the “Mini-Pig BioA” value ([1]; base oil Capmul MCM) read?
Answer: Its value is 9%.

Question: What about the “injury to the colon” value [2] of the same compound?
Answer: The value was “significantly reduce the injury to the colon”.

Question: What about the radiation damage [3] of the same compound?
Answer: Its radiation damage is “attenuate the radiation damage”.

Question: And the radiation damage [4]?
Answer: Its radiation damage is “attenuate the radiation damage”.

Question: And the inflammation [5]?
Answer: The inflammation was “inhibit inflammation”.

Question: What about the joint disease [6] of the same compound?
Answer: The joint disease was “prevent joint disease”.

Question: Which “Mini-Pig BioA” value ([1]; base oil Capmul MCM) does the source give for “Manganese(II)bis-racemic-phenylglycinato[(4aR,13aR,17aR,21 aR)-1,2,3,4,4a,5,6,12,13,13a,14,15,16,17,17a,18,19,20,21,21a-Eicosahydro-11,7-nitrilo-7H-dibenzo[b,h][1,4,7,10] tetraazacycloheptadecine-κN5, κN13, κN18, κN21, κN22]- [GC4717]” here?
Answer: Its value is 26%.

Question: Which results are given for “Manganese(II)bis-racemic-2-phenylpropionato[(4aS,13aS,17aS,21 aS)-1,2,3,4,4a,5,6,12,13,13a,14,15,16,17,17a,18,19,20,21,21a-Eicosahydro-11,7-nitrilo-7H-dibenzo[b,h][1,4,7,10] tetraazacycloheptadecine-κN5, κN13, κN18, κN21, κN22]- [GC4705]”?
Answer: Mini-Pig BioA ([1]; base oil Capmul MCM): 23%; Mini-Pig BioA ([1]; base oil Peceol): 24%

Question: Which “Mini-Pig BioA” value ([1]; base oil Capmul MCM) does the source give for “Manganese(II)bis-octanoato[(4aS,13aS,17aS,21aS)-1,2,3,4,4a,5,6,12,13,13a,14,15,16,17,17a,18,19,20,21,21a-Eicosahydro-11,7-nitrilo-7H-dibenzo[b,h][1,4,7,10] tetraazacycloheptadecine-κN5, κN13, κN18, κN21, κN22]- [GC4710]” here?
Answer: The value was 13%.

Question: And the “Mini-Pig BioA” value ([1]; base oil Labrafil M2125 CS)?
Answer: The value was 21%.

Question: And the “Mini-Pig BioA” value ([1]; base oil Maisine 35-1)?
Answer: The value was 8%.

Question: With `[Cl][Mn][Cl].c1cc2nc(c1)CN[C@H]1CCCC[C@@H]1NCCN[C@H]1CCCC[C@@H]1NC2` [GC4419, reference compound] as the compound, how does the “Mini-Pig BioA” value ([1]; base oil Capmul MCM) read?
Answer: The value was 9%.

Question: What about the “Mini-Pig BioA” value ([1]; base oil Labrafil M2125 CS) of the same compound?
Answer: The value was 7%.

Question: And the “Mini-Pig BioA” value ([1]; base oil Maisine 35-1)?
Answer: The value was 8%.

Question: And the “Mini-Pig BioA” value ([1]; base oil Miglyol 812 N)?
Answer: Its value is 8%.

Question: And the “Mini-Pig BioA” value ([1]; base oil Peceol)?
Answer: Its value is 9%.

Question: And the solubility in water [7]?
Answer: Its solubility in water is “relatively readily soluble in water”.

Question: And the pulmonary disease [8]?
Answer: Its pulmonary disease is “attenuate VEGFr inhibitor-induced pulmonary disease”.

Question: What about the “anti-tumor activity of anti-metabolite and anti-mitotic agents” value [9] of the same compound?
Answer: Its value is “increase the anti-tumor activity”.

Question: What about the oral mucositis [10] of the same compound?
Answer: The oral mucositis was “reduce oral mucositis”.

Question: For “Manganese(II)bis-L-phenylalaninato[(4aS,13aS,17aS,21 aS)-1,2,3,4,4a,5,6,12,13,13a,14, 15,16,17,17a,18,19,20,21,21a-Eicosahydro-11,7-nitrilo-7H-dibenzo[b, h][1,4,7,10]tetraazacyclo-heptadecine-κN5, κN13, κN18, κN21, κN22]- [GC4704]”, which “Mini-Pig BioA” value ([1]; base oil Capmul MCM) is on record?
Answer: Its value is 10%.
